Results: patent US12233129B2, “Methods and compositions for the treatment of cancer” (priority 2019, dated 2025)
“Also recorded” adds a separate entry of the source.

Key:
[1] = test system: UBXN2A; experiment: Western blot of UBXN2A protein in treated HCT-116 cells; type: cell-based, human; conditions: VTD 20 and 40 μM, 24 hours
Protocol: Our in vivo results encouraged us to screen for compounds that can enhance expression of UBXN2A. Using the UBXN2A promoter upstream of a luciferase construct that was transiently transfected to HCT-116 cells, we performed a high-throughput drug screen with 1800 FDA approved drugs, synthetic compounds, and natural products. Forty-eight hours after transfection, cells were treated with compounds for 24 hours in triplicate (FIG. 16A). […] We looked at protein expression of UBXN2A as well as P47 (another member of the UBXD family) to confirm the selectivity of VH as a selective enhancer of UBXN2A protein in cells. […] We observed a different level of VH-dependent UBXN2A induction in different segments of the gastrointestinal system (esophagus to rectum; data not shown).
The alkaloid fraction of Veratrine is known to contain a mixture of two major alkaloid esters: Veratridine (VTD) and Cevadine. VTD, with a veratroyl group at the 3-OR1 position and a free hydroxyl group at the 15-O-R2 position can function as an antihypertensive plant-derived substance. […]
A cell-based screen was conducted in search of compounds that induce the expression of the UBXN2A gene. […] A glow luciferase activity assay was conducted in triplicate followed by semi-quantitative RT-PCR and WB analysis for UBXN2A, p47 (negative control), or GAPDH± Veratrine or its purified form VTD. […]

[2] = test system: HCT-116 p53+/+; experiment: MTT cell viability assay; type: cell-based, human
Protocol: (§1) We decided to confirm whether VTD-induced tumor suppression is indeed mediated via the UBXN2A-mot-2-p53 axis (FIG. 18H). After initial verification with WB (FIG. 18A), HCT-116 (p53+/+ and p53 −/−) and LoVo were treated with VTD for 24, 48, and 72 hours (FIG. 18B-D). […] We defined this phenomenon as a delayed cytotoxic response, since it occurs through UBXN2A transcription, as previously described for other anti-cancer agents. […] In the second set of experiments, we treated two stable UBXN2A silenced clones of HCT-116 along with controls with VTD. […] Staurosporine-treated cells were used as a positive control (S4F). […] Finally, to understand the contribution of mot-2 to the anti-cancer mechanism of VTD, we used a mot-2 inhibitor known as MKT-077 [7] along with VTD in well-differentiated SW-48 (WT-p53) colon cancer cells for 72 hours. Due to the critical role of mot-2 in the mitochondria, we could not use a silencing strategy for mot-2 in this set of experiments.
(§2) The viability of cells was calculated as % of control.
(§3) FIG. 18: Veratridine (VTD) functions via the UBXN2A-mot-2-p53 axis. (A) WB confirmed the presence and the absence of p53 protein in HCT-116 p53^(+/+) and HCT-116 p53^(−/−) cancer cell lines, respectively. […] (F) In another set of experiments, UBXN2A-silenced cells were treated with VTD (100, 200, and 300 μM) for 24 hours. Cells were then labelled with Sytox Red followed by flow cytometry analysis. […] (G) SW48 well-differentiated colon cancer cells with WT-p53 were treated with MKT-077 (5 mg/ml), an mot-2 inhibitor, along with VTD for 72 hours. […] (H) This flowchart recapped the sequence of proteins which activate and function upon VTD exposure to decrease cell viability. The data is shown as mean±SEM of three independent experiments (n=3) in triplicate where *p<0.05 using Benferroni's modified student's t-test.

[3] = test system: HCT-116 p53−/−; experiment: MTT cell viability assay; type: cell-based, human
Protocol: as §1, §2, §3

[4] = test system: LoVo; experiment: MTT cell viability assay; type: cell-based, human
Protocol: as §1, §2, §3

[5] = test system: SW480 colon cancer cell line; experiment: Flow cytometry of stem cell markers; type: cell-based, human; conditions: VTD 72 hours
Protocol: FIG. 24 panels A-D are examples of FlowJo analysis of CD44 biomarker in SW480 cells treated with VTD for 72 hours.

[6] = test system: Rictor; experiment: Flow cytometry with anti-Rictor antibody in SW480 cells; type: cell-based, human; conditions: VTD 5 days (semi-chronic treatment), N=3
Protocol: In panels A-E, SW480 cells were treated with VTD for 5 days (a semi-chronic treatment) and the cells were collected and subjected to flow-cytometry analysis using anti-Rictor antibody.

[7] = test system: HCT-116-iRFP cancer cells; experiment: HCT-116-iRFP xenograft mouse model; type: in vivo, Hsd:Athymic Nude-Foxn1nu mice; conditions: IP 0.1 mg/kg every other day for 5 weeks versus Ethanol
Protocol: Five week Hsd:Athymic Nude-Foxn1^nu mice were implanted with 1×10^6 HCT-116-iRFP cancer cells at both flanks followed by IP injection of Ethanol (con) or Veratridine (VTD-0.1 mg/kg) every other day for 5 weeks. Twelve mice were used per treatment with 6 males and 6 females in each group.

## COc1ccc(C(=O)O[C@H]2CC[C@@]3(C)[C@@H]4CC[C@H]5[C@]6(O)C[C@H](O)[C@@]7(O)[C@@H](CN8C[C@@H](C)CC[C@H]8[C@@]7(C)O)[C@]6(O)C[C@@]53O[C@]24O)cc1OC [VTD, Veratridine]
[1]
  UBXN2A protein expression (WB): induces UBXN2A expression in a dose-dependent manner; also recorded: increases UBXN2A protein levels in a dose-dependent manner
[2]; 48 and 72 hours, compared with HCT-116 p53−/−
  cell viability (MTT): significantly lower
[2]; 24 hour treatment
  cell viability (MTT): not sufficient to produce any cytotoxic or anti-proliferative effect
[3]; 48 and 72 hours
  cell viability (MTT): started to respond to VTD at higher doses after 48 hours; also recorded: more resistance to VTD's effects
[3]; 24 hour treatment
  cell viability (MTT): not sufficient to produce any cytotoxic or anti-proliferative effect
[4]; 48 and 72 hours
  cell viability (MTT): reduction of cell viability reached a maximum at 72 hours; also recorded: highest sensitivity to VTD
[4]; 24 hour treatment, higher doses
  cell viability (MTT): significantly decreases the viability
[5]
  CD44+ stem cell population: significant reduction
  CD133+ stem cell population: significant reduction
  LgR5+ stem cell population: significant reduction
[6]
  level of Rictor proteins: significantly decreases Rictor proteins
[7]
  growth of tumor: slowdown growth of tumor
